{
  "source": "patent US20230218666A1",
  "about": "“ANTIMICROBIAL COMBINATIONS” (MARVELBIOTICS LIMITED, priority 2020, published 2023)",
  "key": {"Lactobacillus plantarum [1]": {"test_system": "Lactobacillus plantarum", "assay": "Phase 2b: survival of Lactobacillus plantarum after 24 hours contact at a range of concentrations", "settings": "for Minimum concentration at which growth was observed (%): single agent, n = 3; for Growth observed after recovering viable Lactobacillus plantarum: 24 hours, replicates 1.1-3.2", "method": "Twenty-four-hour cultures of L. plantarum were harvested from MRSA and used to prepare a 1×10^8±5×10^7 CFUmL^−1 suspension in MRSB. The starting inoculum was confirmed by serial dilution and plating out the resultant suspensions. […] Each test agent was diluted 1:2 a total of eight times. A 50 μL aliquot of each test agent dilution was added to the wells of a 96-well plate. A 50 μL aliquot of L. plantarum inoculum was added to the test agent and pipette mixed. The 96-well plates were incubated for 24 hours at 37° C.±2° C. and 5% CO2. Following incubation, 100 μL of DE-N was added to each well and pipette mixed. A 10 μL aliquot of each neutralised suspension was taken from each well and spot-plated onto MRSA. The plates were incubated for 24 hours at 37° C.±2° C. and 5% CO2. Following incubation, the presence or absence of growth on the plates was recorded. Testing was performed in triplicate."}, "Lactobacillus plantarum [2]": {"test_system": "Lactobacillus plantarum", "assay": "Phase 2c: survival of Lactobacillus plantarum after 30 minutes, 4 hours and 24 hours contact", "format": "cell-based", "settings": "for Minimum concentration at which growth was observed (%): single agent, n = 3; for Growth observed after recovering viable Lactobacillus plantarum: replicates 1.1-3.2", "description": "Three concentrations of each test agent were prepared following the results of Phase 2b. […] Testing was performed in triplicate."}, "Lactobacillus plantarum [3]": {"test_system": "Lactobacillus plantarum", "assay": "Phase 2a: survival of Lactobacillus plantarum after 24 hours contact at stock concentrations", "method": "Twenty-four-hour cultures of L. plantarum were harvested from MRSA and used to prepare a 1×10^8±5×10^7 CFUmL^−1 suspension in MRSB. The starting inoculum was confirmed by serial dilution and plating out the resultant suspensions. […] A 50 μL aliquot of each test agent was added to the wells of a 96-well plate. A 50 μL aliquot of L. plantarum inoculum was then added to the test agent and pipette mixed. The 96-well plates were incubated for 24 hours at 37° C.±2° C. and 5% CO2. Following incubation, 100 μL of DE-N was added to each well and pipette mixed. A 10 μL aliquot of each neutralised suspension was taken from each well and spot-plated onto MRSA. The plates were incubated for 24 hours at 37° C.±2° C. and 5% CO2. Following incubation, the presence or absence of growth on the plates was recorded. Testing was performed in triplicate."}},
  "note": "Where “and” joins values, the source holds several entries; their conditions need not be identical. Identical values can stand only once.",
  "data": [
    {"substance": "Copper gluconate", "values": [
      {"measurement": "Minimum concentration at which growth was observed (%)", "setting": "Lactobacillus plantarum [1]; 24 hours contact time", "value": 0.255, "unit": "%"},
      {"measurement": "Growth observed after recovering viable Lactobacillus plantarum", "setting": "Lactobacillus plantarum [1]; concentration 0.064 %", "value": "+"},
      {"measurement": "Growth observed after recovering viable Lactobacillus plantarum", "setting": "Lactobacillus plantarum [1]; concentration 0.128 %", "value": "+"},
      {"measurement": "Growth observed after recovering viable Lactobacillus plantarum", "setting": "Lactobacillus plantarum [1]; concentration 0.255 %", "value": "+"},
      {"measurement": "Growth observed after recovering viable Lactobacillus plantarum", "setting": "Lactobacillus plantarum [1]; concentration 0.510 %", "value": "−"},
      {"measurement": "Growth observed after recovering viable Lactobacillus plantarum", "setting": "Lactobacillus plantarum [1]; concentration 1.021 %", "value": "−"},
      {"measurement": "Growth observed after recovering viable Lactobacillus plantarum", "setting": "Lactobacillus plantarum [1]; concentration 2.042 %", "value": "−"},
      {"measurement": "Growth observed after recovering viable Lactobacillus plantarum", "setting": "Lactobacillus plantarum [1]; concentration 4.084 %", "value": "−"},
      {"measurement": "Growth observed after recovering viable Lactobacillus plantarum", "setting": "Lactobacillus plantarum [1]; concentration 8.167 %", "value": "−"},
      {"measurement": "concentration at which consistent growth was observed across all replicates", "setting": "Lactobacillus plantarum [2]; 30 minutes contact time", "value": "≤ 4.083", "unit": "%"},
      {"measurement": "Minimum concentration at which growth was observed (%)", "setting": "Lactobacillus plantarum [2]; 30 minutes contact time", "value": 8.167, "unit": "%"},
      {"measurement": "Minimum concentration at which growth was observed (%)", "setting": "Lactobacillus plantarum [2]; 4 hours contact time", "value": 0.510, "unit": "%"},
      {"measurement": "Minimum concentration at which growth was observed (%)", "setting": "Lactobacillus plantarum [2]; 24 hours contact time", "value": 0.255, "unit": "%"},
      {"measurement": "Growth observed after recovering viable Lactobacillus plantarum", "setting": "Lactobacillus plantarum [2]; concentration 0.128 %, 24 hours", "value": "+"},
      {"measurement": "Growth observed after recovering viable Lactobacillus plantarum", "setting": "Lactobacillus plantarum [2]; concentration 0.255 %, 4 hours", "value": "+"},
      {"measurement": "Growth observed after recovering viable Lactobacillus plantarum", "setting": "Lactobacillus plantarum [2]; concentration 0.255 %, 24 hours", "value": "+"},
      {"measurement": "Growth observed after recovering viable Lactobacillus plantarum", "setting": "Lactobacillus plantarum [2]; concentration 0.510 %, 4 hours", "value": "+"},
      {"measurement": "Growth observed after recovering viable Lactobacillus plantarum", "setting": "Lactobacillus plantarum [2]; concentration 0.510 %, 24 hours", "value": "−"},
      {"measurement": "Growth observed after recovering viable Lactobacillus plantarum", "setting": "Lactobacillus plantarum [2]; concentration 0.510 %, 24 hours, listed as copper gluconate", "value": "unable to survive"},
      {"measurement": "Growth observed after recovering viable Lactobacillus plantarum", "setting": "Lactobacillus plantarum [2]; concentration 1.021 %, 4 hours", "value": "−"},
      {"measurement": "Growth observed after recovering viable Lactobacillus plantarum", "setting": "Lactobacillus plantarum [2]; concentration 1.021 %, 4 hours, listed as copper gluconate", "value": "unable to survive"},
      {"measurement": "Growth observed after recovering viable Lactobacillus plantarum", "setting": "Lactobacillus plantarum [2]; concentration 2.042 %, 30 minutes", "value": "+"},
      {"measurement": "Growth observed after recovering viable Lactobacillus plantarum", "setting": "Lactobacillus plantarum [2]; concentration 4.084 %, 30 minutes", "value": "+"},
      {"measurement": "Growth observed after recovering viable Lactobacillus plantarum", "setting": "Lactobacillus plantarum [2]; concentration 8.167 %, 30 minutes", "value": "− (4×) and + (2×)"},
      {"measurement": "Growth observed after recovering viable Lactobacillus plantarum", "setting": "Lactobacillus plantarum [2]; concentration 8.167 %, 30 minutes, listed as copper gluconate", "value": "Growth was observed in two of three replicates"},
      {"measurement": "Growth", "setting": "Lactobacillus plantarum [3]; stock concentration 8.167 %, n = 3", "value": "No"},
      {"measurement": "Growth", "setting": "Lactobacillus plantarum [3]; stock concentration 8.167 %, n = 3, listed as copper gluconate", "value": "No growth of L. plantarum was observed"}
    ]},
    {"substance": "Zinc gluconate", "values": [
      {"measurement": "Growth of L. plantarum", "setting": "Lactobacillus plantarum [1]; 24 hours contact time, at all concentrations tested (Table 6)", "value": "Growth was observed"},
      {"measurement": "Minimum concentration at which growth was observed (%)", "setting": "Lactobacillus plantarum [1]; 24 hours contact time", "value": 6.326, "unit": "%"},
      {"measurement": "Growth observed after recovering viable Lactobacillus plantarum", "setting": "Lactobacillus plantarum [1]; concentration 0.049 %", "value": "+"},
      {"measurement": "Growth observed after recovering viable Lactobacillus plantarum", "setting": "Lactobacillus plantarum [1]; concentration 0.099 %", "value": "+"},
      {"measurement": "Growth observed after recovering viable Lactobacillus plantarum", "setting": "Lactobacillus plantarum [1]; concentration 0.198 %", "value": "+"},
      {"measurement": "Growth observed after recovering viable Lactobacillus plantarum", "setting": "Lactobacillus plantarum [1]; concentration 0.395 %", "value": "+"},
      {"measurement": "Growth observed after recovering viable Lactobacillus plantarum", "setting": "Lactobacillus plantarum [1]; concentration 0.791 %", "value": "+"},
      {"measurement": "Growth observed after recovering viable Lactobacillus plantarum", "setting": "Lactobacillus plantarum [1]; concentration 1.582 %", "value": "+"},
      {"measurement": "Growth observed after recovering viable Lactobacillus plantarum", "setting": "Lactobacillus plantarum [1]; concentration 3.163 %", "value": "+"},
      {"measurement": "Growth observed after recovering viable Lactobacillus plantarum", "setting": "Lactobacillus plantarum [1]; concentration 6.326 %", "value": "+"},
      {"measurement": "Minimum concentration at which growth was observed (%)", "setting": "Lactobacillus plantarum [2]; 30 minutes contact time", "value": 6.326, "unit": "%"},
      {"measurement": "Minimum concentration at which growth was observed (%)", "setting": "Lactobacillus plantarum [2]; 30 minutes contact time, listed as zinc gluconate", "value": "≤ 6.326", "unit": "%"},
      {"measurement": "Minimum concentration at which growth was observed (%)", "setting": "Lactobacillus plantarum [2]; 4 hours contact time", "value": 6.326, "unit": "%"},
      {"measurement": "Minimum concentration at which growth was observed (%)", "setting": "Lactobacillus plantarum [2]; 4 hours contact time, listed as zinc gluconate", "value": "≤ 6.326", "unit": "%"},
      {"measurement": "Minimum concentration at which growth was observed (%)", "setting": "Lactobacillus plantarum [2]; 24 hours contact time", "value": 6.326, "unit": "%"},
      {"measurement": "Minimum concentration at which growth was observed (%)", "setting": "Lactobacillus plantarum [2]; 24 hours contact time, listed as zinc gluconate", "value": "≤ 6.326", "unit": "%"},
      {"measurement": "Growth observed after recovering viable Lactobacillus plantarum", "setting": "Lactobacillus plantarum [2]; concentration 1.5815 %, 30 minutes", "value": "+"},
      {"measurement": "Growth observed after recovering viable Lactobacillus plantarum", "setting": "Lactobacillus plantarum [2]; concentration 1.5815 %, 4 hours", "value": "+"},
      {"measurement": "Growth observed after recovering viable Lactobacillus plantarum", "setting": "Lactobacillus plantarum [2]; concentration 1.5815 %, 24 hours", "value": "+"},
      {"measurement": "Growth observed after recovering viable Lactobacillus plantarum", "setting": "Lactobacillus plantarum [2]; concentration 3.163 %, 30 minutes", "value": "+"},
      {"measurement": "Growth observed after recovering viable Lactobacillus plantarum", "setting": "Lactobacillus plantarum [2]; concentration 3.163 %, 4 hours", "value": "+"},
      {"measurement": "Growth observed after recovering viable Lactobacillus plantarum", "setting": "Lactobacillus plantarum [2]; concentration 3.163 %, 24 hours", "value": "+"},
      {"measurement": "Growth observed after recovering viable Lactobacillus plantarum", "setting": "Lactobacillus plantarum [2]; concentration 6.326 %, 30 minutes", "value": "+"},
      {"measurement": "Growth observed after recovering viable Lactobacillus plantarum", "setting": "Lactobacillus plantarum [2]; concentration 6.326 %, 4 hours", "value": "+"},
      {"measurement": "Growth observed after recovering viable Lactobacillus plantarum", "setting": "Lactobacillus plantarum [2]; concentration 6.326 %, 24 hours", "value": "+"},
      {"measurement": "Growth", "setting": "Lactobacillus plantarum [3]; stock concentration 6.326 %, n = 3", "value": "Yes"},
      {"measurement": "Growth", "setting": "Lactobacillus plantarum [3]; stock concentration 6.326 %, n = 3, listed as zinc gluconate", "value": "Growth of L. plantarum was observed"}
    ]}
  ]
}
